Results: patent US4319028A, “7-(2-(Substituted benzoyl)amino)acetamido)cephalosporins” (Eli Lilly and Company, priority 1976, dated 1982)
Values after ≈ are worked out from the molar mass of the structure shown. Like-named read-outs stand apart in the source and are kept apart here.

Assays:
[1] = Water solubility (inferred from low yield); assay type: physicochemical; conditions: inferred from low yield of aqueous isolation
[2] = test system: V41 (penicillin resistant Staphylococcus); experiment: Antibiotic activity (MIC), Gradient Plate in vitro method, V41; assay type: cell-based; conditions: read-out: Minimum Inhibitory Concentration
Source text: (§1) The antibiotic activity of the cephalosporin compounds of the present invention is illustrated by the data presented in Table I for representative compounds. The values in the table are the minimum inhibitory concentrations (MIC) for the test compounds against the indicated microorganisms. The MIC values were obtained in the Gradient Plate in vitro method for determining antibiotic activity.
(§2) ^1 Test organisms V41, V32, and V84 are penicillin resistant

Aerobacter Aerogenes = experiment: Antibiotic activity (MIC), Gradient Plate in vitro method, Aerobacter Aerogenes; assay type: cell-based; conditions: Klebsiella aerogenes, read-out: Minimum Inhibitory Concentration
Source text: (§3) The values in the table are the minimum inhibitory concentrations (MIC) for the test compounds against the indicated microorganisms. The MIC values were obtained in the Gradient Plate in vitro method for determining antibiotic activity.

Serratia marcescens = experiment: Antibiotic activity (MIC), Gradient Plate in vitro method, Serratia marcescens; assay type: cell-based; conditions: read-out: Minimum Inhibitory Concentration
Source text: as §1

[3] = test system: V84 (penicillin resistant Staphylococcus); experiment: Antibiotic activity (MIC), Gradient Plate in vitro method, V84; assay type: cell-based; conditions: read-out: Minimum Inhibitory Concentration
Source text: as §1, §2

Salmonella heidelberg = experiment: Antibiotic activity (MIC), Gradient Plate in vitro method, Salmonella heidelberg; assay type: cell-based; conditions: Salmonella enterica, read-out: Minimum Inhibitory Concentration
Source text: as §3

[4] = test system: X466 (methicillin resistant Staphylococcus); experiment: Antibiotic activity (MIC), Gradient Plate in vitro method, X466; assay type: cell-based; conditions: read-out: Minimum Inhibitory Concentration
Source text: as §1, with “activity. […]” for “activity.”

[5] = test system: V32 (penicillin resistant Staphylococcus); experiment: Antibiotic activity (MIC), Gradient Plate in vitro method, V32; assay type: cell-based; conditions: read-out: Minimum Inhibitory Concentration
Source text: as §1, §2

Escherichia coli = experiment: Antibiotic activity (MIC), Gradient Plate in vitro method, Escherichia coli; assay type: cell-based; conditions: read-out: Minimum Inhibitory Concentration
Source text: as §3

Klebsiella pneumoniae = experiment: Antibiotic activity (MIC), Gradient Plate in vitro method, Klebsiella pneumoniae; assay type: cell-based; conditions: read-out: Minimum Inhibitory Concentration
Source text: as §3

Pseudomonas Aeruginosa = experiment: Antibiotic activity (MIC), Gradient Plate in vitro method, Pseudomonas Aeruginosa; assay type: cell-based; conditions: read-out: Minimum Inhibitory Concentration
Source text: as §3

Shigella sp. = experiment: Antibiotic activity (MIC), Gradient Plate in vitro method, Shigella sp.; assay type: cell-based; conditions: read-out: Minimum Inhibitory Concentration
Source text: as §1

Titration (pKa) = assay type: physicochemical; conditions: 66% dmf-34% h2o, titration (66% DMF-34% H2O)

Cc1nnc(SCC2=C(C(=O)O)N3C(=O)C(NC(=O)[C@H](NC(=O)c4ccc(O)cc4)c4ccc(O)cc4)C3SC2)s1 (stereo partly drawn) [Example 12, 7-[D-[2-(4-Hydroxyphenyl)-2-[(4-hydroxybenzoyl)amino]acetyl]-amino]-3-[[(5-methyl-1,3,4-thiadiazol-2-yl)thio]methyl]-3-cephem-4-carboxylic acid]
water solubility [1]: quite water soluble
MIC ([2]; Staphylococcus): 1 µg/mL (≈ 1.63 µM)
MIC (Aerobacter Aerogenes): 40 µg/mL (≈ 65.2 µM)
MIC (Serratia marcescens): > 200 µg/mL
MIC ([3]; Staphylococcus): 1 µg/mL (≈ 1.63 µM)
MIC (Salmonella heidelberg): 33 µg/mL (≈ 53.8 µM)
MIC [4]: 84 µg/mL (≈ 137 µM)
MIC ([5]; Staphylococcus): 1 µg/mL (≈ 1.63 µM)
MIC (Escherichia coli): 50 µg/mL (≈ 81.5 µM)
MIC (Klebsiella pneumoniae): 29.5 µg/mL (≈ 48.1 µM)
MIC (Pseudomonas Aeruginosa): > 200 µg/mL
MIC (Shigella sp.): 13.9 µg/mL (≈ 22.6 µM)

NC(=O)OCC1=C(C(=O)O)N2C(=O)C(NC(=O)C(NC(=O)c3cccc(O)c3O)c3ccccc3)C2SC1 [Example 20, 7-[D-[2-Phenyl-2-[(2,3-dihydroxybenzoyl)amino]acetyl]-amino]-3-carbamoyloxymethyl-3-cephem-4-carboxylic acid]
pKa (Titration (pKa); first pKa, read-out: pKa (first value)): 5.15
pKa (Titration (pKa); second pKa, read-out: pKa (second value)): 8.7
MIC ([2]; Gradient Plate in vitro, V41, penicillin resistant Staphylococcus): 7.9 µg/mL (≈ 14.6 µM)
MIC (Aerobacter Aerogenes): 76 µg/mL (≈ 140 µM)
MIC (Serratia marcescens): > 200 µg/mL
MIC ([3]; Gradient Plate in vitro, V84, penicillin resistant Staphylococcus): 6.1 µg/mL (≈ 11.2 µM)
MIC (Salmonella heidelberg): 1 µg/mL (≈ 1.84 µM)
MIC [4]: > 200 µg/mL
MIC ([5]; Gradient Plate in vitro, V32, penicillin resistant Staphylococcus): 7.4 µg/mL (≈ 13.6 µM)
MIC (Escherichia coli): 74 µg/mL (≈ 136 µM)
MIC (Klebsiella pneumoniae): 6.5 µg/mL (≈ 12 µM)
MIC (Pseudomonas Aeruginosa): 140 µg/mL (≈ 258 µM)
MIC (Shigella sp.): 58 µg/mL (≈ 107 µM)
